Measurements as given in article PMC9516243, “Design of stapled peptide-based PROTACs for MDM2/MDMX atypical degradation and tumor suppression” (Theranostics, 2022).
Positions of bridges follow the written chain, without caps; N, C: chain ends. Non-standard residues stand in square brackets, D forms with d. Residues, ends and D or L forms follow the SMILES beside them. Hyp = O=C(O)[C@@H]1C[C@@H](O)CN1; R8 = C=CCCCCCC[C@@](C)(N)C(=O)O; hLeu = CC(C)CC[C@H](N)C(=O)O; S5 = C=CCCC[C@](C)(N)C(=O)O; AEA = NCCOCC(=O)O

Columns and labels:
[1] = test system: HCT-116 orthotopic (rectal mucosa) xenograft; assay: Orthotopic CRC xenograft model; assay type: in vivo, BALB/c nude mice
Procedure: (§1) Four-week-old male BALB/c nude mice (15-20 g) were used to establish subcutaneous and orthotopic xenograft models. A total of 5 × 10^6 HCT-116 cells were subcutaneously inoculated into the right flanks of the mice. Tumor volume was calculated using the following formula: V = (L × W^2)/2, where L is the length and W is the width of the tumor nodules measured with a vernier caliper. […] Drugs were intravenously injected into the mice every 2 days for 2 weeks. In addition, the model of orthotopic CRC xenografts was established. Briefly, mice were anesthetized after fasting for 12 h. Subsequently, the distal anal and rectal mucosa were exposed, and transanal injection of HCT-116 cells (5 × 10^6) was performed using a 30 G sterile needle. The injection was given directly into the rectal mucosa. Tumor growth was investigated, and once the tumors reached ~0.5 cm in size, the mice were randomly divided into two groups. The mice were treated every other day for 2 weeks with tail vein injections of either vehicle (saline) or sPMI-HIF2-1 (2 mg/kg). Body weight was measured before saline or drug injection. All mice were euthanized on day 14 following drug treatment, and the tumors were isolated, photographed, weighed, and measured.

[2] = circular dichroism; settings: phosphate buffer (PB); pH 7.2; 20 °C; 10-50 uM
[3] = test system: HCT116 p53^-/- cells; assay: Cell viability assay (CCK-8); assay type: cell-based, human; settings: CCK-8, 72 h incubation, absorbance 450 nm; read-out: IC50 (μM) HCT116 p53^-/-
Procedure: (§2) The human colon carcinoma cell line HCT116 p53^+/+ was obtained from the Cell Bank of the Chinese Academy of Sciences (Shanghai, China). HCT116 p53^-/- cells were generously provided by Prof. Vogelstein of Johns Hopkins University. Both cell lines were cultured in McCoy's 5A medium (Gibco, USA) containing 10% FBS, 100 units/ml penicillin, and 100 μg/ml streptomycin at 37 °C in a humidified incubator containing 5% CO2. Cell viability was measured using a Cell Counting Kit-8 (CCK-8) (Dojindo, Kumamoto, Japan) according to the manufacturer's instructions. In brief, the cells (5 × 10^3 cells/well in […] medium) were cultured for 24 h in 96-well microplates in a humidified 5% CO2 incubator at 37 °C and then treated with varying concentrations of compounds or 0.1% DMSO vehicle control.

[4] = test system: HCT116 p53^+/+ cells; assay: Cell viability assay (CCK-8); assay type: cell-based, human
Procedure: as §2

[5] = test system: MDM2 and MDMX in HCT116 cells; assay: Western blot of MDM2 and MDMX protein levels; assay type: cell-based, human
Procedure: HCT116, MCF-7, or other cells were seeded in six-well plates (4 × 10^5 cells/well) and treated with PROTACs at the indicated concentrations for 24 h. The cells were lysed in RIPA lysis buffer. The protein concentrations were measured using the BCA method and equal amounts of each sample were separated by SDS-PAGE, followed by transfer onto filter membranes. Then, the membranes were blocked and incubated with primary antibodies (Abcam, UK) at 4 °C overnight, followed by incubation with the secondary antibodies. The protein bands were identified using a ChemiDoc MP Imaging System (Bio-Rad, USA).

[6] = test system: α-Chymotrypsin; assay: Proteolytic stability against chymotrypsin; assay type: in vitro ADME; settings: chymotrypsin 5 ng/μl (10 μl) added to 1 ml of 1 mM peptide, PBS 50 mM pH 7.4, 2 mM CaCl2, 25°C, HPLC, 90 min, read-out: intact peptide still observed after proteolytic digestion for 90 min
Procedure: Peptides were dissolved in PBS (50 mM, pH = 7.4) to a final concentration of 1 mM. α-Chymotrypsin was dissolved in PBS (50 mM, containing 2 mM of CaCl2, pH = 7.4) to a final concentration of 5 ng/μl. Then the peptide solutions (1 ml) were incubated with […] (10 μl) at 25°C. Samples were taken at 0, 5, 30, 60, 90, and 120 min and reactions were quenched with 20 μL of hydrochloric acid (1 M). The solution of the trypsin peptide fragments was monitored by HPLC at different time points to determine the fraction of protease degradation.

[7] = α-Helicity by CD spectroscopy; assay type: physicochemical; settings: PB pH 7.2, 10-50 µM peptide, 20°C, calculated from [θ]222
Procedure: Peptides were dissolved in PB (pH = 7.2) to concentrations ranging from 10 to 50 µM. CD spectra were obtained on a Jasco J-715 spectropolarimeter at 20°C. The spectra were collected using a 0.1 cm path length quartz cuvette with the following measurement parameters: wavelength, 185-255 nm; step resolution, 0.1 nm; speed, 20 nm/min; accumulations, 6; bandwidth, 1 nm. The helical content of each peptide was calculated as reported previously.

[8] = test system: HCT-116 subcutaneous xenograft; assay: Subcutaneous HCT-116 xenograft model; assay type: in vivo, BALB/c nude mice
Procedure: as §1

[9] = target: T1, ^24-108MDMX (Homo sapiens, UniProt O15151); assay: FP-based competitive binding assay; settings: MDMX 40 nM, fluorescently tagged p53 peptide 20 nM, PBS pH 7.4, 30 min room temperature; mean of three independent measurements
T1 construct: ^24-108MDMX, and a fluorescently tagged p53-derived peptide
T1 sequence (O15151 24-108): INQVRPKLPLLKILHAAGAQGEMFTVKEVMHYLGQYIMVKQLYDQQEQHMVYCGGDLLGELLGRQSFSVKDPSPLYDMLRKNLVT
Procedure: (§3) An FP-based competitive or binding assay was established using ^25-109MDM2, ^24-108MDMX, and a fluorescently tagged p53-derived peptide as previously described. [34]-[36] For dose-dependent competitive binding experiments, MDM2 or MDMX protein (40 nM) was first incubated with TAMRA-p53 peptide (20 nM) in PBS (pH 7.4) on a Costar 96-well plate, to which a serially diluted solution of test peptide was added to a final volume of 125 μL. After 30 min of incubation at room temperature, the FP values were measured at λex = 530 nm and λem = 580 nm on a Tecan Infinite M1000 plate reader. For binding experiments, FITC-labeled SPMI-HIF2-1 (20 nM) was incubated with different concentrations of MDM2, MDMX, and VHL proteins. Curve fitting was performed using GraphPad Prism software, and Ki values were calculated as described previously. Three replicates and three independent experiments were performed.

[10] = target: T2, ^25-109MDM2 (Homo sapiens, UniProt Q00987); assay: FP-based competitive binding assay; settings: MDM2 40 nM, fluorescently tagged p53 peptide 20 nM, PBS pH 7.4, 30 min room temperature; mean of three independent measurements
T2 construct: established using ^25-109MDM2, ^24-108MDMX
Procedure: as §3

[11] = 10 mg/kg i.v. tail vein every other day for 2 weeks, tumor volume

CC(=O)N[C@H](C(=O)N[C@@H](CO)C(=O)N[C@@H](Cc1ccccc1)C(=O)N[C@]1(C)CCCCCCC=CCCC[C@@](C)(C(=O)NCCOCC(=O)N[C@@H](CC(C)C)C(=O)N[C@@H](C)C(=O)N2C[C@H](O)C[C@H]2C(=O)N[C@@H](Cc2ccc(O)cc2)C(=O)N[C@@H](CCC(C)C)C(=O)N2CCC[C@H]2C(N)=O)NC(=O)[C@H](CC(C)C)NC(=O)[C@H](CC(C)C)NC(=O)[C@H](C)NC(=O)[C@H](Cc2c[nH]c3ccccc23)NC(=O)[C@H](Cc2ccc(O)cc2)NC(=O)[C@H](CCC(=O)O)NC1=O)[C@@H](C)O [SPMI-HIF2-1] (Ac-TSF[R8]EYWALL[S5][AEA]LA[Hyp]Y[hLeu]P-NH2; staple 4-11)
body weight ([1]; 2 mg/kg i.v. every 2 days until the 13th day, compared to saline-treated controls): no obvious change in body weight
reduction in tumor weight compared to the control group ([1]; 2 mg/kg i.v. tail vein every 2 days until the 13th day, n = 5 mice/group): 77%
helicity [2]: 37%
IC50 [3]: > 100 µM
enhancement of IC50 against HCT116 p53^+/+ compared with SPMI2 ([4]; CCK-8, 72 h): ~5 fold
IC50 ([4]; CCK-8, 72 h incubation, absorbance 450 nm, read-out: IC50 (μM) HCT116 p53^+/+): 6.7 µM
turning point of atypical degradation of MDM2 and MDMX [5]: approximately 20 μM
remaining at 1.5 h, 1 mM [6]: > 60%
α-helicity (%) [7]: 37%
body weight ([8]; 10 mg/kg i.v. every other day for 2 weeks): no obvious changes in body weight
inhibition of tumor growth, enhanced compared to the 50 mg/kg PMI-HIF1-1 group [8, 11]: 3 fold
inhibition of tumor growth, enhanced compared to the control group [8, 11]: 5 fold
Ki [9]: 530 nM
Ki [10]: 350 nM
